The results in this text go back to patent publication US7842470B2, “Method for pharmacoperones correction of GnRHR mutant protein misfolding” (Oregon Health & Science University, priority 2001, dated 2010).

The target of one experiment is T1, mutant GnRHR (Homo sapiens, UniProt P30968, E90K).
T1 construct: expressed in transfected cells; host or cells: COS-7
T1 sequence (P30968 1-328 E90K): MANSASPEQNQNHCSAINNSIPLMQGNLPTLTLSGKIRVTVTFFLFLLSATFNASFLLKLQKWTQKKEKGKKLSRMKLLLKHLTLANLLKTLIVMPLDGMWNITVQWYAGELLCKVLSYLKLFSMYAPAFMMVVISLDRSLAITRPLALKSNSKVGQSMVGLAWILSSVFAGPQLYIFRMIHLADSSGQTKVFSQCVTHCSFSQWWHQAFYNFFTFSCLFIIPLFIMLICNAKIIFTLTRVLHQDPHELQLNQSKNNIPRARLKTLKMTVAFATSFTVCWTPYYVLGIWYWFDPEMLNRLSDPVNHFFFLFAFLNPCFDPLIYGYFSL
The experiment can be described thus: Pharmacological rescue of GnRHR mutants (Example 1), IP production and agonist binding. In kind it is cell-based.

For a further experiment, the target named is T2, WT hGnRHR (Homo sapiens, UniProt P30968).
T2 construct: expressed in transfected cells; host or cells: COS-7
T2 sequence (P30968 1-328): T1 sequence (P30968 1-328 E90K) with K90E
The experiment can be described thus: IP production in COS-7 cells transfected with WT hGnRHR, Buserelin dose response (FIG. 13 inset). Format: cell-based. The following applies: COS-7 cells transfected with 100 ng of WT hGnRHR.

SMILES strings stand for the structures. Numbering of substitutions follows the chain as printed.

Description for WT hGnRHR: For tranfections, 5×10^4 COS-7 cells were plated in 0.25 ml growth medium in 48 well Costar cell culture plates. Twenty-four hours after plating, the cells were washed once with 0.5 ml OPTI-MEM (Promega, Madison, Wis.) then transfected with 100 ng total cDNA (pcDNA3.1+without insert “empty vector” was included to bring the total cDNA to 100 ng/well, unless otherwise indicated) and 1 μl lipofectamine in 0.125 ml OPTI-MEM (room temperature), according to manufacture's instructions. For co-transfection, the cells were co-transfected with WT GnRHR (5 ng/well) and empty vector or mutant GnRHR (95 ng/well) or other GPCR cDNAs, as indicated, using 1 μl Lipofectamine (Promega, Madison, Wis.) in 0.125 ml Opti-MEM. Constant amounts of Opti-MEM were achieved by the addition of sterile milli-Q H2O to the cDNA mixtures. […]
The IP production was measured 27 hours after transfection, as described in Example 1, except that following the preloading, cells were treated for 2 hours in 0.25 ml of Buserelin (100 nM), and at the end of the incubation period, the cells were frozen and thawed in the presence of 0.5 ml of 0.1 M formic acid. Data (n≧3) was analyzed with one-way ANOVA and then paired Student's t-test (SigmaStat 3.0, Jandel Scientific Software, Chicago, Ill.; P<0.05 was considered significant). […]
Description for mutant GnRHR: WT and mutant hGnRHR were separately transiently expressed in COS-7 cells using standard molecular biology methods (Leaños-Miranda et al., J. Clin. Endo. Metab., 87:4825-8, 2002). Briefly, cells were maintained in growth medium (DMEM) containing 10% fetal calf serum (FCS; Life Technologies, Grand Island, N.Y.) and 20 μg/ml gentamicin (Gemini Bioproducts, Calabasas, Calif.) in a 5% CO2 humidified atmosphere at 37° C. One hundred thousand cells/well were seeded in 24-well plates (Costar, Cambridge, Mass.). Twenty-four hours after plating, the cells were transfected with 0.05 μg DNA per well (for IP production assay) or 0.1 μg DNA per well (for saturation binding studies) using 2 μl lipofectamine in 0.25 ml OPTI-MEM containing 1% DMSO (vehicle) or 1 μg/ml of each indole, quinoline or erythromycin macrolide prepared in vehicle.
After five hours, 0.25 ml of DMEM containing 20% FCS with or without indole, quinoline or erythromycin macrolide (as indicated) was added to each well. The cells were incubated for an additional 18 hours at 37° C., then washed and fresh growth medium with (1 μg/ml) or without the therapeutic agent was added to the cells for another 28 hours at 37° C. […]
The quantification of IP production and saturation binding were determined as described previously (Huckle and Conn, Methods Enzymol. 141:149-55, 1987).
To determine the saturation binding, the cells were washed twice with warm DMEM/BSA prior to incubating with the GnRH agonist [^125I]-buserelin [D-tert-butyl-Ser^6, des-Gly^10, Pro^9, ethylamide-GnRH; specific activity, 700 μCi/μg; 230,000 cpm/0.5 ml, pH 7.4; Hoeschst-Roussel Pharmaceuticals (Somerville, N.J.); also see Marian et al., Mol. Pharmacol. 19:399-405, 1981] and nonspecific binding was measured in the presence of 1 μM GnRH (NIDDK National Hormone and Peptide Program, Bethesda, Md.). […] The sample was transferred to a glass tube and counted in a gamma counter (Packard Instruments; Downers Grove, Ill.). Specific binding was calculated by subtracting non-specific binding (binding measured in the presence of 1 μM GnRH) from total binding (no GnRH). […]

As to `CC[C@H]1OC(=O)[C@H](C)[C@@H](O[C@H]2C[C@@](C)(OC)[C@@H](O)[C@H](C)O2)[C@H](C)[C@@H](O[C@@H]2O[C@H](C)C[C@H](N(C)C)[C@H]2O)[C@](C)(O)C[C@@H](C)C(=O)[C@H](C)[C@@H](O)[C@]1(C)O` [A-7662.0, Erythromycin A], the “restoration of function to mutant GnRHR” value at mutant GnRHR was “known not to bind to or restore function to mutant protein”.

Turning to `CCNC(=O)[C@@H]1CCCN1C(=O)[C@H](CCCNC(=N)N)NC(=O)[C@H](CC(C)C)NC(=O)[C@@H](COC(C)(C)C)NC(=O)[C@H](Cc1ccc(O)cc1)NC(=O)[C@H](CO)NC(=O)[C@H](Cc1c[nH]c2ccccc12)NC(=O)[C@H](Cc1cnc[nH]1)NC(=O)[C@@H]1CCC(=O)N1` [Buserelin, D-tert-butyl-Ser^6, des-Gly^10, Pro^9, ethylamide-GnRH], at WT hGnRHR, the “Buserelin concentration giving maximal response on IP production” value is on record as 10^−7 M.

Turning to `Cc1cc(C)cc(-c2[nH]c3ccc(C(C)(C)C(=O)N4CCN(C)CC4)cc3c2[C@H](C)CNCCc2ccc(C(=O)O)cc2)c1.O=C(O)C(F)(F)F` [IN31b, (2S)-N-[2-(4-carboxyphenyl)ethyl]-2-[5-[1,1-dimethyl-2-(4-methylpiperazin-1-yl)-2-oxoethyl]-2-(3,5-dimethylphenyl)-1H-indol-3-yl]propan-1-aminium trifluoroacetate], at mutant GnRHR, the “restoration of function to mutant GnRHR” value is listed as “known not to bind to or restore function to mutant protein”.

Consider `COc1cc2c(cc1OC)CN(C(=O)c1cc3c(OCC[C@@H]4CCCCN4)c(-c4cc(C)cc(C)c4)c(=O)[nH]c3cc1Cl)CC2.O=C(O)C(F)(F)F` [Q08, (2S)-2-(2-{[7-chloro-6-[(6,7-dimethoxy-3,4-dihydroisoquinolin-2(1H)-yl)carbonyl]-3-(3,5-dimethylphenyl)-2-oxo-1,2-dihydroquinolin-4-yl]oxy}ethyl)piperidinium trifluoroacetate], for which the “restoration of function to mutant GnRHR” value at mutant GnRHR is listed as “known not to bind to or restore function to mutant protein”.
